Measured values from US20200231607A1, “TRISUBSTITUTEDSILYLHETEROARYLOXYQUINOLINES AND ANALOGUES” (Bayer Aktiengesellschaft, priority 2017, published 2020).

Key:
[1] = HPLC, reversed-phase C 18, 40° C., 0.1% aqueous formic acid and acetonitrile, gradient 10% to 95% acetonitrile
Method: temperature: 40° C.; mobile phases: 0.1% aqueous formic acid and acetonitrile; linear gradient from 10% acetonitrile to 95% acetonitrile;
Calibration was carried out using unbranched alkan-2-ones (comprising 3 to 16 carbon atoms) with known log P values (determination of the log P values by the retention times using linear interpolation between two successive alkanones). lambda-max-values were determined using UV-spectra from 200 nm to 400 nm and the peak values of the chromatographic signals.

Pyricularia oryzae = assay: microbe, parasite or virus in culture; assay type: cell-based; conditions: 120 h, read-out: efficacy (inhibition of fungal growth)
Leptnosphaeria nodorum = assay: In vitro cell test on Leptnosphaeria nodorum; assay type: cell-based; conditions: 120 h; 20 ppm of active ingredient; 5 days incubation; liquid culture, spectrometric measurement of mycelium growth; read-out: efficacy (inhibition of fungal growth)
Method: (§1) Solvent: dimethyl sulfoxide Culture medium: 14.6 g anhydrous D-glucose (VWR), • 7.1 g mycological peptone (Oxoid), • 1.4 g granulated yeast extract (Merck), QSP 1 liter Inoculum: spore suspension The tested compounds were solubilized in dimethyl sulfoxide and the solution used to prepare the required range of concentrations. […] A spore suspension of Leptnosphaeria nodorum was prepared and diluted to the desired spore density. The compounds were evaluated for their ability to inhibit spore germination and mycelium growth in liquid culture assay. The compounds were added in the desired concentration to the culture medium with spores. After 5 days incubation, fungi-toxicity of compounds was determined by spectrometric measurement of mycelium growth. Inhibition of fungal growth was determined by comparing the absorbance values in wells containing the tested compound with the absorbance in control wells without the tested compound.

[2] = test system: Colletotrichum lindemuthianum; assay: In vitro cell test on Colletotrichum lindemuthianum; assay type: cell-based; conditions: 144 h, 20 ppm of active ingredient, 6 days incubation, liquid culture, spectrometric measurement of mycelium growth, read-out: efficacy (inhibition of fungal growth)
Method: as §1, with “Colletotrichum lindemuthianum” for “Leptnosphaeria nodorum”, “6” for “5”

| Structure (SMILES) | chromatographic logP [1] | also measured |
| --- | --- | --- |
| C[Si](C)(C)c1cnccc1Oc1cnc2ccccc2n1 [I.01] |  | logP [1]: 2.64 |
| C[Si](C)(C)c1cnccc1Oc1cnc2ccccc2c1 [I.02] |  | logP [1]: 2.15 |
| C[Si](C)(C)c1c(Oc2cnc3ccccc3c2)ccnc1F [I.03, 3-{[2-fluoro-3-(trimethylsilyl)pyridin-4-yl]oxy}quinoline] | 4.08 | inhibition at 20 ppm (Pyricularia oryzae): 90 to 100%; inhibition at 20 ppm (Leptnosphaeria nodorum): 90 to 100%; inhibition at 20 ppm [2]: 90 to 100% |
| C[Si](C)(Cc1ccccc1)c1c(Oc2cnc3ccccc3c2)ccnc1F [I.06, 3-({3-[benzyl(dimethyl)silyl]-2-fluoropyridin-4-yl}oxy)quinoline] | 4.78 | inhibition at 20 ppm (Pyricularia oryzae): 90 to 100%; inhibition at 20 ppm (Leptnosphaeria nodorum): 80 to 89%; inhibition at 20 ppm [2]: 80 to 89% |
| C[Si](C)(C)c1cnccc1Oc1cnc2c(F)cccc2n1 [I.15] |  | logP [1]: 2.75 |
| Cc1nc2c(F)c(F)ccc2nc1Oc1ccncc1[Si](C)(C)C [I.18] |  | logP [1]: 2.80 |
| Cc1nc2c(F)c(F)ccc2nc1Oc1cnccc1[Si](C)(C)C [I.19] |  | logP [1]: 3.94 |
| Cc1nc2ccccc2nc1Oc1ccncc1[Si](C)(C)C [I.23] |  | logP [1]: 2.49 |
| Cc1nc2ccccc2n1Cc1sccc1[Si](C)(C)C [I.24, 2-methyl-1-{[3-(trimethylsilyl)-2-thienyl]methyl}-1H-benzimidazole] | 2.13 | inhibition at 20 ppm (Pyricularia oryzae): 90 to 100%; inhibition at 20 ppm (Leptnosphaeria nodorum): 90 to 100%; inhibition at 20 ppm [2]: 90 to 100% |
| C[Si](C)(C)c1sccc1Cn1cnc2ccccc21 [I.25] |  | logP [1]: 2.08 |
| C[Si](C)(c1ccccc1)c1sccc1Cn1cnc2ccccc21 [I.26] |  | logP [1]: 2.49 |
| Cc1nc2c(F)c(F)ccc2cc1Cc1sccc1[Si](C)(C)C [I.28, 7,8-difluoro-2-methyl-3-{[3-(trimethylsilyl)-2-thienyl]methyl}-quinoline] | 5.25 |  |
| Cc1nc2c(F)c(F)ccc2nc1Oc1cccnc1Br [IIa.01, 2-[(2-bromopyridin-3-yl)oxy]-5,6-difluoro-3-methylquinoxaline] | 3.26 |  |
| Cc1nc2c(F)c(F)ccc2nc1Oc1cc(Cl)cnc1Br [IIa.02, 2-[(2-bromo-5-chloropyridin-3-yl)oxy]-5,6-difluoro-3-methylquinoxaline] | 4.3 |  |
| Fc1ccc2nc(Oc3cccnc3Br)cnc2c1F [IIa.03, 2-[(2-bromopyridin-3-yl)oxy]-5,6-difluoroquinoxaline] | 2.96 |  |
| Fc1cccc2cc(Nc3cccnc3Cl)cnc12 [IIa.04, N-(2-chloropyridin-3-yl)-8-fluoroquinolin-3-amine] | 2.14 |  |
| Fc1nccc(Oc2cnc3ccccc3c2)c1Br [IIb.01, 3-[(3-bromo-2-fluoropyridin-4-yl)oxy]quinoline] | 2.96 | logP [1]: 2.92 |
| Cc1nc2c(F)c(F)ccc2nc1Oc1cc(Cl)ncc1Br [IIb.02, 2-[(5-bromo-2-chloropyridin-4-yl)oxy]-5,6-difluoro-3-methylquinoxaline] | 4.2 |  |
| Fc1ccc2nc(Oc3ccncc3Br)cnc2c1F [IIb.03, 2-[(3-bromopyridin-4-yl)oxy]-5,6-difluoroquinoxaline] | 1.81 |  |

| Structure (SMILES) | chromatographic logP [1] | also measured |
| --- | --- | --- |
| Clc1nccc(Nc2cnc3ccccc3c2)c1Br [IIb.04, N-(3-bromo-2-chloropyridin-4-yl)quinolin-3-amine] | 2.35 |  |
| COc1nccc(Oc2cc3ccc(F)c(F)c3nc2C)c1Br [IIb.05, 3-[(3-bromo-2-methoxypyridin-4-yl)oxy]-7,8-difluoro-2-methylquinoline] | 3.85 |  |
| Fc1nccc(Oc2cnc3c(F)cccc3c2)c1Br [IIb.06, 3-[(3-bromo-2-fluoropyridin-4-yl)oxy]-8-fluoroquinoline] | 2.98 |  |
| Clc1nccc(Oc2cnc3ccccc3c2)c1Br [IIb.07, 3-[(3-bromo-2-chloropyridin-4-yl)oxy]quinoline] | 2.35 |  |
| Fc1nccc(Nc2cnc3ccccc3c2)c1Br [IIb.08, N-(3-bromo-2-fluoropyridin-4-yl)quinolin-3-amine] | 2.25 |  |
| Cc1nc2c(F)c(F)ccc2cc1Oc1ccnc(C(F)(F)F)c1Br [IIb.09, 3-{[3-bromo-2-(trifluoromethyl)pyridin-4-yl]oxy}-7,8-difluoro-2-methylquinoline] | 4.01 |  |
| Cc1nc2c(F)c(F)ccc2cc1Nc1ccnc(C(F)(F)F)c1Br [IIb.10, N-[3-bromo-2-(trifluoromethyl)pyridin-4-yl]-7,8-difluoro-2-methylquinolin-3-amine] | 3.37 |  |
| Cc1nc2c(F)c(F)ccc2nc1Oc1cncc(Cl)c1Br [IIc.01, 2-[(4-bromo-5-chloropyridin-3-yl)oxy]-5,6-difluoro-3-methylquinoxaline] | 4.06 |  |
| Cc1nc2ccccc2cc1Oc1cnccc1Br [IIc.02, 3-[(4-bromopyridin-3-yl)oxy]-2-methylquinoline] | 2.44 |  |
| Cc1nc2c(F)c(F)ccc2nc1Oc1cnccc1Br [IIc.03, 2-[(4-bromopyridin-3-yl)oxy]-5,6-difluoro-3-methylquinoxaline] | 3.19 |  |
| Cc1nc2c(F)c(F)ccc2nc1Oc1ncc(Cl)cc1Br [IId.01, 2-[(3-bromo-5-chloropyridin-2-yl)oxy]-5,6-difluoro-3-methylquinoxaline] | 4.72 |  |
| Cc1nc2c(F)c(F)ccc2cc1Nc1ncc(Cl)cc1Br [IId.02, N-(3-bromo-5-chloropyridin-2-yl)-7,8-difluoro-2-methylquinolin-3-amine] | 4.36 |  |
| Clc1ncnc(Oc2cnc3ccccc3c2)c1Br [IIe.01, 3-[(5-bromo-6-chloropyrimidin-4-yl)oxy]quinoline] | 3.09 |  |
| Cc1nc2c(F)c(F)ccc2cc1Oc1sccc1Br [IIf.01, 3-[(3-bromo-2-thienyl)oxy]-7,8-difluoro-2-methylquinoline] | 4.23 |  |
| Clc1cc(Oc2cnc3ccccc3c2)ccn1 [VIIa.01, 3-[(2-chloropyridin-4-yl)oxy]quinoline] | 2.47 |  |
| Cc1nc2ccccc2cc1Oc1ccnc(F)c1 [VIIa.02, 3-[(2-fluoropyridin-4-yl)oxy]-2-methylquinoline] | 2.17 |  |
| Fc1cc(Oc2cnc3ccccc3c2)ccn1 [VIIa.03, 3-[(2-fluoropyridin-4-yl)oxy]quinoline] | 2.25 |  |
| Fc1cc(Oc2cnc3ccccc3c2)ncn1 [VIIb.01, 3-[(6-fluoropyrimidin-4-yl)oxy]quinoline] | 2.08 |  |
